Source: PubChem BioAssay AID2060338 (Molecular Pharmacology Branch, DTP, NCI, 2025)

Test system: 556581-035-R-J1-PDC spheroids with HUVEC/MSC, viability
Test: Anticancer human tumor 556581-035-R-J1-PDC patient-derived ovarian carcinoma cell line growth inhibition [IpAb]
Details: for IC50: curve of first compound; for viability, T/C: stronger effect = lower value
Text: Combinatorial screen of targeted agents with ipatasertib and abemaciclib in multi-cell type tumor spheroids
A high-throughput screen of multi-cell type tumor spheroids was designed to identify active combinations of targeted small molecules and ipatasertib or abemaciclib. Complex spheroids include a stromal component modeled by human endothelial cells (HUVEC) and fibroblasts modeled by human mesenchymal stem cells (MSCs). The concentration ranges selected for each drug and investigational agent were based upon clinically achievable concentrations if the clinical Cmax of the agent was known.
Compounds. The drugs and investigational agents: ipatasertib (NSC767898), abemaciclib(NSC768073), selumetinib (NSC741078), trametinib (758246), adavosertib (NSC754352), everolimus (NSC733504), sapanisertib (NSC764658), vemurafenib (NSC761431), venetoclax (NSC766270), copanlisib (NSC809693), apelisib (NSC765974), palbociblib (NSC758247), vemurafenib (NSC761431), dabrafenib (NSC764134), ravoxertinib (NSC781343), BMS-387032 (NSC767048), sotorasib (NSC818433), talazoparib (NSC767125) and afursertib (NSC778305), were obtained from the National Cancer Institute (NCI) Developmental Therapeutics Program Chemical Repository. The FDA-approved anticancer drug set is available from the NCI Developmental Therapeutics Program. […] The stock solutions were prepared in dimethyl sulfoxide (DMSO, Sigma-Aldrich, St. Louis, MO, cat. D2650) at 800-fold the tested concentration and stored at -70 degrees C prior to their use. All drugs and investigational agents were tested over a range starting from a high concentration at or near the clinical Cmax and decreasing in half-log increments. If the clinical Cmax for an agent had not been determined, the highest concentration tested was 10 microM.
NCI60 Cell Culture. NCI60 cell lines were obtained from the NCI Developmental Therapeutics Program Tumor Repository. For each lot of cells, the Repository performed Applied Biosystems AmpFLSTR Identifiler testing with PCR amplification to confirm consistency with the published Identifier STR profile for each cell line. Cells were kept in continuous culture for no more than 20 passages. The optimal seeding densities for each of the cell lines at each time point assessed were determined prior to performing the concentration response studies. Briefly, the NCI60 human tumor lines were grown as monolayers in RPMI 1640 medium supplemented with 10% FBS and 2 mmol/L L-glutamine.
An additional 9 lines were from the NCI60 cell line panel including MDA-MB-231 breast carcinoma, MDA-MB-468 breast carcinoma, MCF7 breast carcinoma, Hs578T breast carcinoma, MALME-3M melanoma, SK-MEL-2 melanoma, SK-OV-3 ovarian carcinoma, DU-145 prostate carcinoma, PC-3 prostate carcinoma, all cell lines along with major genetic alterations are listed on Table 2. Pooled donor human umbilical vein endothelial cells (HUVEC, Lonza, cat. CC-2519) and human mesenchymal stem cells (hMSC, Lonza, cat. PT-2501) were purchased from Lonza (Walkersville, MD).
PDMR cell lines were grown in complete medium (DC medium): Dulbecco's modified Eagle's medium (DMEM)/F12 supplemented with 5% fetal bovine serum (FBS), 2 mM L-glutamine, 100 U/mL penicillin and 100 µg/ml streptomycin, 0.4 µg/ml hydrocortisone, 10 ng/ml epidermal growth factor (EGF) recombinant human protein, 24 µg/mL adenine, and 0.1 mg/mL primocin. During culture from frozen stock vials, PDMR cells were cultured in the same medium containing 10 µM Y-27632 (see Table 3). The PDCs were cultured in complete DMEM/F12 media without 10 microM Y-27632 dihydrochloride for at least two passages prior to the screen. The pooled donor HUVEC and hMSC were cultured in endothelial cell growth medium 2 (PromoCell, Heidelberg, Germany, cat. C-22011) and mesenchymal stem cell growth medium 2 (PromoCell, cat. C-28009), respectively. For all experiments, HUVEC and hMSC were used at passages </=5.
[…]

[1] = second compound 0.1 µM, first compound 0.0316 µM
[2] = second compound 0.1 µM, first compound 0.1 µM
[3] = second compound 0.1 µM, first compound 0.316 µM
[4] = second compound 0.1 µM, first compound 1 µM
[5] = second compound 0.1 µM, first compound 3.16 µM
[6] = second compound 0.1 µM, first compound 10 µM
[7] = second compound 0.316 µM, first compound 0.0316 µM
[8] = second compound 0.316 µM, first compound 0.1 µM
[9] = second compound 0.316 µM, first compound 0.316 µM
[10] = second compound 0.316 µM, first compound 1 µM
[11] = second compound 0.316 µM, first compound 3.16 µM
[12] = second compound 0.316 µM, first compound 10 µM
[13] = second compound 1 µM, first compound 0.0316 µM
[14] = second compound 1 µM, first compound 0.1 µM
[15] = second compound 1 µM, first compound 0.316 µM
[16] = second compound 1 µM, first compound 1 µM
[17] = second compound 1 µM, first compound 3.16 µM
[18] = second compound 1 µM, first compound 10 µM
[19] = second compound 3.16 µM, first compound 0.0316 µM
[20] = second compound 3.16 µM, first compound 0.1 µM
[21] = second compound 3.16 µM, first compound 0.316 µM
[22] = second compound 3.16 µM, first compound 1 µM
[23] = second compound 10 µM, first compound 0.0316 µM
[24] = second compound 10 µM, first compound 0.1 µM
[25] = second compound 10 µM, first compound 0.316 µM
[26] = second compound 10 µM, first compound 1 µM
[27] = second compound 0.01 µM, first compound 0.0316 µM
[28] = second compound 0.01 µM, first compound 0.1 µM
[29] = second compound 0.01 µM, first compound 0.316 µM
[30] = second compound 0.01 µM, first compound 1 µM
[31] = second compound 0.01 µM, first compound 3.16 µM
[32] = second compound 0.01 µM, first compound 10 µM
[33] = second compound 0.0316 µM, first compound 0.0316 µM
[34] = second compound 0.0316 µM, first compound 0.1 µM
[35] = second compound 0.0316 µM, first compound 0.316 µM
[36] = second compound 0.0316 µM, first compound 1 µM
[37] = second compound 0.0316 µM, first compound 3.16 µM
[38] = second compound 0.0316 µM, first compound 10 µM
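Also: spheroids exposed to compounds for 7 days before readout.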

Row | Structure (SMILES) | IC50 (second compound 0.1 µM) [µM] | IC50 (second compound 0.316 µM) [µM] | IC50 (second compound 1 µM) [µM] | viability, T/C [1] [%] | viability, T/C [2] [%] | viability, T/C [3] [%] | viability, T/C [4] [%] | viability, T/C [5] [%] | viability, T/C [6] [%] | viability, T/C [7] [%] | viability, T/C [8] [%] | viability, T/C [9] [%] | viability, T/C [10] [%] | viability, T/C [11] [%] | viability, T/C [12] [%] | viability, T/C [13] [%] | viability, T/C [14] [%] | viability, T/C [15] [%] | viability, T/C [16] [%] | viability, T/C [17] [%] | also measured
1 | CCCS(=O)(=O)Nc1ccc(F)c(C(=O)c2c[nH]c3ncc(-c4ccc(Cl)cc4)cc23)c1F + CC(C)NCC(C(=O)N1CCN(c2ncnc3c2C(C)CC3O)CC1)c1ccc(Cl)cc1 | > 10 | > 10 | > 10 | 80.4 | 83 | 97.2 | 88.6 | 90 | 54.3 | 90 | 73.9 | 71.8 | 80.8 | 78.2 | 59.9 | 67.1 | 69 | 61.5 | 71.3 | 69.1 | IC50 (second compound 3.16 µM): 4.62 µM; IC50 (second compound 10 µM): 0.0316 µM; viability, T/C [18]: 40.4%; viability, T/C [19]: 49.2%; viability, T/C [20]: 61.8%; viability, T/C [21]: 55.5%; viability, T/C [22]: 55.8%; viability, T/C (second compound 3.16 µM, first compound 3.16 µM): 54.5%; viability, T/C (second compound 3.16 µM, first compound 10 µM): 40.8%; viability, T/C [23]: 45.1%; viability, T/C [24]: 46.7%; viability, T/C [25]: 47.2%; viability, T/C [26]: 53.2%; viability, T/C (second compound 10 µM, first compound 3.16 µM): 50.8%; viability, T/C (second compound 10 µM, first compound 10 µM): 16.6%
2 | C=CC(=O)N1CCN(c2nc(=O)n(-c3c(C)ccnc3C(C)C)c3nc(-c4c(O)cccc4F)c(F)cc23)C(C)C1 (configuration not stated) + CCN1CCN(Cc2ccc(Nc3ncc(F)c(-c4cc(F)c5nc(C)n(C(C)C)c5c4)n3)nc2)CC1 | 7.02 | 4.11 | 0.143 | 94.1 | 109 | 103 | 124 | 94.4 | 30.1 | 85.3 | 93.3 | 108 | 106 | 56.4 | 28.1 | 50.1 | 50.2 | 51.6 | 42 | 34.2 | IC50 (second compound 0.01 µM): 7.37 µM; IC50 (second compound 0.0316 µM): 7.29 µM; viability, T/C [27]: 102%; viability, T/C [28]: 108%; viability, T/C [29]: 105%; viability, T/C [30]: 119%; viability, T/C [31]: 91%; viability, T/C [32]: 35.2%; viability, T/C [33]: 91.2%; viability, T/C [34]: 107%; viability, T/C [35]: 104%; viability, T/C [36]: 107%; viability, T/C [37]: 108%; viability, T/C [38]: 29.7%; viability, T/C [18]: 17.6%
3 | CC1(C)CCC(CN2CCN(c3ccc(C(=O)NS(=O)(=O)c4ccc(NCC5CCOCC5)c([N+](=O)[O-])c4)c(Oc4cnc5[nH]ccc5c4)c3)CC2)=C(c2ccc(Cl)cc2)C1 + CCN1CCN(Cc2ccc(Nc3ncc(F)c(-c4cc(F)c5nc(C)n(C(C)C)c5c4)n3)nc2)CC1 | 6.72 | 5.59 | 2.06 | 122 | 104 | 107 | 94.4 | 91.6 | 29.9 | 94 | 95.6 | 92.2 | 94.4 | 87.6 | 11.8 | 67 | 58.1 | 68.6 | 56.8 | 45.1 | IC50 (second compound 0.01 µM): 8.32 µM; IC50 (second compound 0.0316 µM): 6.5 µM; viability, T/C [27]: 92.6%; viability, T/C [28]: 118%; viability, T/C [29]: 112%; viability, T/C [30]: 108%; viability, T/C [31]: 102%; viability, T/C [32]: 40.2%; viability, T/C [33]: 106%; viability, T/C [34]: 111%; viability, T/C [35]: 108%; viability, T/C [36]: 98%; viability, T/C [37]: 95.5%; viability, T/C [38]: 23.7%; viability, T/C [18]: 6.15%
4 | COc1c(OCCCN2CCOCC2)ccc2c3n(c(=NC(=O)c4cnc(N)nc4)nc12)CCN3 + CC(C)NCC(C(=O)N1CCN(c2ncnc3c2C(C)CC3O)CC1)c1ccc(Cl)cc1 | 0.0254 | 0.0316 | 0.019 | 45.6 | 36.1 | 16.5 | 3.99 |  |  | 55.1 | 31.5 | 15.6 | 2.82 |  |  | 42 | 36.3 | 14.6 | 2.64 |  | IC50 (second compound 3.16 µM): 0.0139 µM; IC50 (second compound 10 µM): 0.00333 µM; viability, T/C (second compound 0.1 µM, first compound 0.00316 µM): 73.8%; viability, T/C (second compound 0.1 µM, first compound 0.01 µM): 61.1%; viability, T/C (second compound 0.316 µM, first compound 0.00316 µM): 91.6%; viability, T/C (second compound 0.316 µM, first compound 0.01 µM): 62.8%; viability, T/C (second compound 1 µM, first compound 0.00316 µM): 64.1%; viability, T/C (second compound 1 µM, first compound 0.01 µM): 57%; viability, T/C (second compound 3.16 µM, first compound 0.00316 µM): 50.2%; viability, T/C (second compound 3.16 µM, first compound 0.01 µM): 45.2%; viability, T/C [19]: 55.3%; viability, T/C [20]: 39.3%; viability, T/C [21]: 11.8%; viability, T/C [22]: 5.41%; viability, T/C (second compound 10 µM, first compound 0.00316 µM): 52%; viability, T/C (second compound 10 µM, first compound 0.01 µM): 42.8%; viability, T/C [23]: 38.5%; viability, T/C [24]: 33.6%; viability, T/C [25]: 14.7%; viability, T/C [26]: 5.1%
5 | CC(C)NCC(C(=O)N1CCN(c2ncnc3c2C(C)CC3O)CC1)c1ccc(Cl)cc1 (configuration not stated) |  |  |  |  |  |  |  |  |  |  |  |  |  |  |  |  |  |  |  |  | viability, T/C (compound 3.16 µM): 49% [middle of 13 runs]; viability, T/C (compound 10 µM): 45.5% [middle of 12 runs]
